The text below walks through data of patent EP3722296B1, “DIHYDRONAPHTHYRIDINES AND RELATED COMPOUNDS USEFUL AS KINASE INHIBITORS FOR THE TREATMENT OF PROLIFERATIVE DISEASES” (Deciphera Pharmaceuticals, LLC, priority 2012, dated 2013).

Format in all cases: biochemical
Assay [1] addresses T1, c-KIT D816V kinase (Homo sapiens, UniProt P10721, D816V).
T1 construct: residues T544-V976 with N-terminal GST fusion; purchased deCODE Biostructures
As to the kind of experiment: c-KIT D816V kinase Assay. Particulars: enzymatic assay, ATP 200 uM. How it is done: In this assay, the oxidation of NADH (measured by decrease in absorbance at 340 nm) was continuously monitored spectrophotometrically. […] The inhibition reaction was started by mixing serial diluted test compound with the above reaction mixture. The absorption at 340 nm was monitored continuously for 5 hours at 30 °C on Synergy 2 plate reader (BioTech).
(§1) The protein construct was prepared by deCODE Biostructures using procedures known in the art. The construct contains residues T544-V976 of cKit, an N-terminal tag, a GST-fusion sequence and a TEV cleavage site. This construct is identical to Seq ID no.

In assay [2] the target is T2, c-KIT T670I kinase (Homo sapiens, UniProt P10721, T670I).
T2 construct: The construct contains residues T544-V976 of cKit; GST (N); TEV cleavage site (internal); purchased deCODE Biostructures
T2 sequence (P10721 544-976 T670I): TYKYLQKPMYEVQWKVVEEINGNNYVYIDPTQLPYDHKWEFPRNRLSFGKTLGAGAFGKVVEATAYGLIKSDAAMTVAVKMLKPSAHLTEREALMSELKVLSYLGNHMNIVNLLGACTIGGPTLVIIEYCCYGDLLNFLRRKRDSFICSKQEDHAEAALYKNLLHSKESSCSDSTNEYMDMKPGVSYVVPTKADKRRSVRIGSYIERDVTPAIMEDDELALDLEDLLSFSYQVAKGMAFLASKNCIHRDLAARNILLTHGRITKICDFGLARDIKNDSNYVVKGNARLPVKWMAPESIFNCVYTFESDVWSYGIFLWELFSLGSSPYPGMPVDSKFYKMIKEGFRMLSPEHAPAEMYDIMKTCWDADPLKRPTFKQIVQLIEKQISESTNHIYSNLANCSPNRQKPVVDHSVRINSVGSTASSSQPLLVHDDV
As to the kind of experiment: c-KIT T670I kinase assay. Particulars: enzymatic assay. As to the method: In this assay, the oxidation of NADH (measured by decrease in absorbance at 340 nm) was continuously monitored spectrophotometrically. […] The inhibition reaction was started by mixing serial diluted test compound with the above reaction mixture. The absorption at 340 nm was monitored continuously for 5 hours at 30 °C on Synergy 2 plate reader (BioTech). […] The protein construct was prepared by deCODE Biostructures using procedures known in the art. The construct contains […] of cKit, an N-terminal tag, a GST-fusion sequence and a TEV cleavage site. This construct is identical to Seq ID no. 1 except for the T670I mutation. [formula] [formula]

Assay [3] deals with c-KIT kinase (Homo sapiens, UniProt P10721). Put plainly: c-KIT kinase Assay. Further details: cKIT residues T544-V976; GST (N); TEV cleavage site (internal); purchased deCODE Biostructures. The following applies: enzymatic assay, ATP 200 µM; read-out: KIT (wt) IC50. How it is done:
In this assay, the oxidation of NADH (measured by decrease in absorbance at 340 nm) was continuously monitored spectrophotometrically. […] The absorption at 340 nm was monitored continuously for 2 hours at 30 °C on Synergy 2 (BioTeK). The reaction rate was calculated using the 0 to 1 h time frame. Percent inhibition was obtained by comparison of reaction rate with that of a control (i.e. with no test compound). IC50 values were calculated from a series of percent inhibition values determined at a range of inhibitor concentrations using software routines as implemented in the GraphPad Prism software package. The protein construct was prepared by deCODE Biostructures using procedures known in the art. The construct contains […] of cKit, an N-terminal tag, a GST-fusion sequence and a TEV cleavage site. [formula]

Assay [4] has as its target T3, c-KIT V654A kinase (Homo sapiens, UniProt P10721, V654A).
T3 construct: residues T544-V976 with N-terminal GST fusion; purchased deCODE Biostructures
As to the kind of experiment: c-KIT V654A Kinase Assay. The following applies: enzymatic assay, ATP 200 µM. How it is done: In this assay, the oxidation of NADH (measured by decrease in absorbance at 340 nm) was continuously monitored spectrophotometrically. […] The inhibition reaction was started by mixing serial diluted test compound with the above reaction mixture. The absorption at 340 nm was monitored continuously for 6 hours at 30 °C on Synergy 2 plate reader (BioTech).
as §1

Assay [5] concerns the target T4, c-KIT D816H kinase (Homo sapiens, UniProt P10721, D816H).
T4 construct: The construct contains residues T544-V976 of cKit; GST (N); TEV cleavage site (internal); purchased deCODE Biostructures
As to the kind of experiment: c-KIT D816H Kinase Assay. Particulars: enzymatic assay, ATP 200 µM. As to the method:
In this assay, the oxidation of NADH (measured by decrease in absorbance at 340 nm) was continuously monitored spectrophotometrically. […] The inhibition reaction was started by mixing serial diluted test compound with the above reaction mixture. The absorption at 340 nm was monitored continuously for 6 hours at 30 °C on Synergy 2 plate reader (BioTech). […] The protein construct was prepared by deCODE Biostructures using procedures known in the art. The construct contains […] of cKit, an N-terminal tag, a GST-fusion sequence and a TEV cleavage site. This construct is identical to Seq ID no.

The structures appear in SMILES notation.

T1 sequence (P10721 544-976 D816V): as the sequence (P10721 544-976 T670I) above, with I127T, D273V counted along it
T3 sequence (P10721 544-976 V654A): as the sequence (P10721 544-976 T670I) above, with V111A, I127T counted along it
Chain of c-KIT kinase (P10721 544-976): as the sequence (P10721 544-976 T670I) above, with I127T counted along it
T4 sequence (P10721 544-976 D816H): as the sequence (P10721 544-976 T670I) above, with I127T, D273H counted along it

For `CNc1cc2c(cn1)cc(-c1cc(NC(=O)Nc3cccc(C#N)c3)ccc1Cl)c(=O)n2C` [Example 11, 1-(4-chloro-3-(1-methyl-7-(methylamino)-2-oxo-1,2-dihydro-1,6-naphthyridin-3-yl)phenyl)-3-(3-cyanophenyl)urea], in assay [1], the half-maximal inhibitory concentration (IC50) was greater than 1000 nM.
For `CCn1c(=O)c(-c2cc(NC(=O)Nc3ccccc3)c(F)cc2Cl)cc2cnc(NCCN(C)C)cc21` [Example 29, 1-(4-chloro-5-(7-(2-(dimethylamino)ethylamino)-1-ethyl-2-oxo-1,2-dihydro-1,6-naphthyridin-3-yl)-2-fluorophenyl)-3-phenylurea], the IC50 in assay [1] lay in the range of 100 to 1000 nM; in assay [2] it was 100 to 1000 nM; in assay [3] it was 10 to 100 nM.
Take `CCn1c(=O)c(-c2cc(NC(=O)Nc3ccccc3)c(F)cc2Cl)cc2cnc(N[C@@H](C)COC)cc21` [Example 43, (S)-1-(4-chloro-5-(1-ethyl-7-(1-methoxypropan-2-ylamino)-2-oxo-1,2-dihydro-1,6-naphthyridin-3-yl)-2-fluorophenyl)-3-phenylurea]: the results for the 50% inhibitory concentration (IC50) in assay [1], in assay [2] and in assay [3] were 100 to 1000 nM, 100 to 1000 nM and 10 to 100 nM, respectively.
As to `CNc1cc2c(cn1)cc(-c1cc(NC(=O)Nc3ccccc3)c(F)cc1Br)c(=O)n2C` [Example 56, 1-(4-bromo-2-fluoro-5-(1-methyl-7-(methylamino)-2-oxo-1,2-dihydro-1,6-naphthyridin-3-yl)phenyl)-3-phenylurea], the 50% inhibitory concentration (IC50) was 10 to 100 nM in assay [1], 100 to 1000 nM in assay [2] and less than 10 nM in assay [3].
The corresponding values for `CCn1c(=O)c(-c2cc(NC(=O)Nc3cc(F)ccc3F)c(F)cc2F)cc2cnc(NC)cc21` [Example 62, 1-(2,5-difluorophenyl)-3-(5-(1-ethyl-7-(methylamino)-2-oxo-1,2-dihydro-1,6-naphthyridin-3-yl)-2,4-difluorophenyl)urea] are 100 to 1000 nM, less than 10 nM and less than 10 nM.
For `CCn1c(=O)c(-c2cc(NC(=O)Nc3ccccc3)c(F)cc2Br)cc2cnc(NC(=O)CC#N)cc21` [Example 64, N-(3-(2-bromo-4-fluoro-5-(3-phenylureido)phenyl)-1-ethyl-2-oxo-1,2-dihydro-1,6-naphthyridin-7-yl)-2-cyanoacetamide], the values for the half-maximal inhibitory concentration (IC50) in assay [1], in assay [2] and in assay [3] were 100 to 1000 nM, 100 to 1000 nM and 10 to 100 nM, respectively.
`CCn1c(=O)c(-c2cc(NC(=O)Nc3ccccc3)c(F)cc2Cl)cc2cnc(NC(=O)CC#N)cc21` [Example 65, N-(3-(2-chloro-4-fluoro-5-(3-phenylureido)phenyl)-1-ethyl-2-oxo-1,2-dihydro-1,6-naphthyridin-7-yl)-2-cyanoacetamide]: the concentration for half-maximal inhibition (IC50) in assay [1] is 10 to 100 nM; in assay [2] it was 10 to 100 nM; in assay [3] it was less than 10 nM.
With `CCn1c(=O)c(-c2cc(NC(=O)Nc3cc(F)cc(Cl)c3)c(F)cc2C)cc2cnc(NC)cc21` [Example 69, 1-(3-chloro-5-fluorophenyl)-3-(5-(1-ethyl-7-(methylamino)-2-oxo-1,2-dihydro-1,6-naphthyridin-3-yl)-2-fluoro-4-methylphenyl)urea], the half-maximal inhibitory concentration (IC50) lay within 100 to 1000 nM in assay [1], 10 to 100 nM in assay [2], 10 to 100 nM in assay [4] and 10 to 100 nM in assay [3].
As for `CCn1c(=O)c(-c2cc(NC(=O)Nc3cc(F)cc(Cl)c3)c(F)cc2Cl)cc2cnc(NC)cc21` [Example 71, 1-(4-chloro-5-(1-ethyl-7-(methylamino)-2-oxo-1,2-dihydro-1,6-naphthyridin-3-yl)-2-fluorophenyl)-3-(3-chloro-5-fluorophenyl)urea], the IC50 in assay [1] fell in the range of 100 to 1000 nM; in assay [2], 10 to 100 nM; in assay [4], 10 to 100 nM; in assay [3], 10 to 100 nM.
Turning to `CCn1c(=O)c(-c2cc(NC(=O)Nc3cc(C)cc(F)c3)c(F)cc2Cl)cc2cnc(NC)cc21` [Example 72, 1-(4-chloro-5-(1-ethyl-7-(methylamino)-2-oxo-1,2-dihydro-1,6-naphthyridin-3-yl)-2-fluorophenyl)-3-(3-fluoro-5-methylphenyl)urea], the half-maximal inhibitory concentration (IC50) in assay [1] is 10 to 100 nM; in assay [2], less than 10 nM; in assay [4], 100 to 1000 nM; in assay [3], less than 10 nM.
`CCn1c(=O)c(-c2cc(NC(=O)Nc3ccccc3)c(F)cc2Cl)cc2cnc(NC(=O)COC)cc21` [Example 74, N-(3-(2-chloro-4-fluoro-5-(3-phenylureido)phenyl)-1-ethyl-2-oxo-1,2-dihydro-1,6-naphthyridin-7-yl)-2-methoxyacetamide]: the IC50 in assay [1] is less than 10 nM; in assay [2] it was 10 to 100 nM; in assay [3] it was less than 10 nM.
On to `CCn1c(=O)c(-c2cc(NC(=O)Nc3cccc(F)c3)c(F)cc2C)cc2cnc(NC(C)=O)cc21` [Example 78, N-(1-ethyl-3-(4-fluoro-5-(3-(3-fluorophenyl)ureido)-2-methylphenyl)-2-oxo-1,2-dihydro-1,6-naphthyridin-7-yl)acetamide], for which the values for the IC50 in assay [1], in assay [2] and in assay [3] were 10 to 100 nM, 10 to 100 nM and less than 10 nM, respectively.
With `CCn1c(=O)c(-c2cc(NC(=O)Nc3ccccc3)c(F)cc2C)cc2cnc(NC(C)=O)cc21` [Example 80, N-(1-ethyl-3-(4-fluoro-2-methyl-5-(3-phenylureido)phenyl)-2-oxo-1,2-dihydro-1,6-naphthyridin-7-yl)acetamide], the half-maximal inhibitory concentration (IC50) in assay [1] is 10 to 100 nM; in assay [5], less than 10 nM; in assay [2], 10 to 100 nM; in assay [3] it was less than 10 nM.
Regarding `CCn1c(=O)c(-c2cc(NC(=O)Nc3cccc(CN4CCN(C)CC4)c3)c(F)cc2C)cc2cnc(NC)cc21` [Example 82, 1-(5-(1-ethyl-7-(methylamino)-2-oxo-1,2-dihydro-1,6-naphthyridin-3-yl)-2-fluoro-4-methylphenyl)-3-(3-((4-methylpiperazin-1-yl)methyl)phenyl)urea], the concentration for half-maximal inhibition (IC50) in assay [1] lay within 100 to 1000 nM; in assay [2] it was 100 to 1000 nM; in assay [3] it was 10 to 100 nM.
For the compound `CCn1c(=O)c(-c2cc(NC(=O)Nc3cccc(CN4CCN(C)CC4)c3)c(F)cc2Br)cc2cnc(NC)cc21` [Example 83, 1-(4-bromo-5-(1-ethyl-7-(methylamino)-2-oxo-1,2-dihydro-1,6-naphthyridin-3-yl)-2-fluorophenyl)-3-(3-((4-methylpiperazin-1-yl)methyl)phenyl)urea], the figures for the half-maximal inhibitory concentration (IC50) in assay [1], in assay [2] and in assay [3] were 100 to 1000 nM, 100 to 1000 nM and less than 10 nM, respectively.
Regarding `CCn1c(=O)c(-c2cc(NC(=O)Nc3ccc(F)c(CN4CCN(C)CC4)c3)c(F)cc2F)cc2cnc(NC)cc21` [Example 90, 1-(5-(1-ethyl-7-(methylamino)-2-oxo-1,2-dihydro-1,6-naphthyridin-3-yl)-2,4-difluorophenyl)-3-(4-fluoro-3-((4-methylpiperazin-1-yl)methyl)phenyl)urea], the IC50 was greater than 1000 nM in assay [1], 10 to 100 nM in assay [5], 10 to 100 nM in assay [2] and less than 10 nM in assay [3].
Take `CCn1c(=O)c(-c2cc(NC(=O)Nc3ccccc3)c(F)cc2I)cc2cnc(NC)cc21` [Example 114, 1-(5-(1-ethyl-7-(methylamino)-2-oxo-1,2-dihydro-1,6-naphthyridin-3-yl)-2-fluoro-4-iodophenyl)-3-phenylurea]: the figures for the concentration for half-maximal inhibition (IC50) in assay [1], in assay [2] and in assay [3] were 100 to 1000 nM, greater than 1000 nM and 10 to 100 nM, respectively.
